Holding throughout (assay type): cell-based
Experiment [1] concerns Listeria monocytogenes, Listeria innocua and Listeria ivanovii. The experiment can be described thus: Experiment 4: comparison of Listeria strains with pairs of substrates. To be noted: for results as saccharidase substrate paired with an esterase substrate: Experiment 4, semi-solid medium. The procedure: (§1) In Table 1 above, as in the following Tables, C represents the color of the colonies after incubation, I represents the intensity of the color, and the symbol “-” corresponds to the absence of color or intensity; finally, IT defines the incubation time. It should be noted that the intensity of the color is scored on an arbitrary scale but one which is consistent for all the biological specimens and media tested. This scale is valid for this experiment as well as all those that follow. It can be defined in the following way: • 0 corresponds to no activity, • 0.1 corresponds to a trace of color, • 0.5 corresponds to very pale coloration, • 1 corresponds to clear but low-intensity coloration, • 1.5 corresponds to a degree of coloration intermediate between scores 1 and 2, • 2 corresponds to clear coloration of moderate intensity, • 2.5 corresponds to a degree of coloration intermediate between scores 2 and 3, • 3 corresponds to intense coloration, • 3.5 corresponds to a degree of coloration intermediate between scores 3 and 4, • 4 corresponds to very intense coloration.
A stock solution of each esterase substrate at a concentration of 40 g/l was made up in a mixture of 40% Dimethylsulfoxide and 60% Tween 20. And a stock solution of each saccharidase substrate was made up in Dimethylsulfoxide. An appropriate volume of the stock solution of the esterase substrate corresponding to each of the pairs described above was added to one of eight Columbia-type media while cooling to obtain a final substrate concentration of 250 mg/l. In parallel, an appropriate volume of the stock solution of the saccharidase substrate corresponding to each of the pairs described above was added to each of the eight media in order to obtain a final concentration of between 100 and 200 mg/l (depending on the substrate). These dishes were divided into three areas and then each area was inoculated with a suspension (density=0.5 McFarland) of microorganisms taken from either the Applicant's own collection or the ATCC. The dishes were incubated for 48 hours at 37° C. The colonies which grew were examined by eye after 24 and 48 hours of incubation.
Both the color and the intensity of the color of the colonies were recorded.

In a further experiment the test system is Listeria seeligeri 011. The experiment can be described thus: Experiment 3: detecting an esterase activity in liquid medium (API-type strips). On the set-up: key: —: the symbol “-” corresponds to the absence of color or intensity; 0 corresponds to no activity; 0.1 corresponds to a trace of color; 0.5 corresponds to very pale coloration; 1 corresponds to clear but low-intensity coloration; 1.5 corresponds to a degree of coloration intermediate between scores 1 and 2; 2 corresponds to clear coloration of moderate intensity; 2.5 corresponds to a degree of coloration intermediate between scores 2 and 3; 3 corresponds to intense coloration; 3.5 corresponds to a degree of coloration intermediate between scores 3 and 4; 4 corresponds to very intense coloration. To be noted: 37° C. The protocol:
as §1
(§2) These substrates were lyophilized in the wells of API-type strips (Registered Trademark). Before use, the substrates contained in the wells were resuspended in an agar-free Columbia-type inoculation medium. These wells were then inoculated with a suspension (density=2 McFarland) of microorganisms taken from either the Applicant's own collection or the ATCC. The strips were incubated for 8 hours at 37° C. The colonies which grew were examined by eye after 4, 6 and 8 hours of incubation.
(§3) The intensity of the color of the colonies was recorded.

For a further experiment, the system named is Listeria innocua 166. Described as above. Also noted: key: —: the symbol “-” corresponds to the absence of color or intensity; 0 corresponds to no activity; 0.1 corresponds to a trace of color; 0.5 corresponds to very pale coloration; 1 corresponds to clear but low-intensity coloration; 1.5 corresponds to a degree of coloration intermediate between scores 1 and 2; 2 corresponds to clear coloration of moderate intensity; 2.5 corresponds to a degree of coloration intermediate between scores 2 and 3; 3 corresponds to intense coloration; 3.5 corresponds to a degree of coloration intermediate between scores 3 and 4; 4 corresponds to very intense coloration. Particulars: 37° C. The procedure: as §1, §2, §3

Experiment [2] relates to Listeria monocytogenes ATCC 19115. The description is as above. On the set-up: key: —: the symbol “-” corresponds to the absence of color or intensity; 0 corresponds to no activity; 0.1 corresponds to a trace of color; 0.5 corresponds to very pale coloration; 1 corresponds to clear but low-intensity coloration; 1.5 corresponds to a degree of coloration intermediate between scores 1 and 2; 2 corresponds to clear coloration of moderate intensity; 2.5 corresponds to a degree of coloration intermediate between scores 2 and 3; 3 corresponds to intense coloration; 3.5 corresponds to a degree of coloration intermediate between scores 3 and 4; 4 corresponds to very intense coloration. To be noted: 37° C. The procedure: as §1, §2, §3

In another experiment the test system is Listeria ivanovii 018. The description is as above. Particulars: 37° C. On the set-up: key: —: the symbol “-” corresponds to the absence of color or intensity; 0 corresponds to no activity; 0.1 corresponds to a trace of color; 0.5 corresponds to very pale coloration; 1 corresponds to clear but low-intensity coloration; 1.5 corresponds to a degree of coloration intermediate between scores 1 and 2; 2 corresponds to clear coloration of moderate intensity; 2.5 corresponds to a degree of coloration intermediate between scores 2 and 3; 3 corresponds to intense coloration; 3.5 corresponds to a degree of coloration intermediate between scores 3 and 4; 4 corresponds to very intense coloration. The protocol:
as §1, §2, §3

Experiment [3] relates to Listeria grayi ATCC 19120. The experiment is described as above. On the set-up: key: —: the symbol “-” corresponds to the absence of color or intensity; 0 corresponds to no activity; 0.1 corresponds to a trace of color; 0.5 corresponds to very pale coloration; 1 corresponds to clear but low-intensity coloration; 1.5 corresponds to a degree of coloration intermediate between scores 1 and 2; 2 corresponds to clear coloration of moderate intensity; 2.5 corresponds to a degree of coloration intermediate between scores 2 and 3; 3 corresponds to intense coloration; 3.5 corresponds to a degree of coloration intermediate between scores 3 and 4; 4 corresponds to very intense coloration. Particulars: 37° C. The procedure:
as §1, §2, §3

In experiment [4] the test system is Listeria monocytogenes 092. The description is as above. On the set-up: key: —: the symbol “-” corresponds to the absence of color or intensity; 0 corresponds to no activity; 0.1 corresponds to a trace of color; 0.5 corresponds to very pale coloration; 1 corresponds to clear but low-intensity coloration; 1.5 corresponds to a degree of coloration intermediate between scores 1 and 2; 2 corresponds to clear coloration of moderate intensity; 2.5 corresponds to a degree of coloration intermediate between scores 2 and 3; 3 corresponds to intense coloration; 3.5 corresponds to a degree of coloration intermediate between scores 3 and 4; 4 corresponds to very intense coloration. Particulars: 37° C. The procedure:
as §1, §2, §3

The subject of a further experiment is Listeria welshimeri 023. The description is as above. On the set-up: key: —: the symbol “-” corresponds to the absence of color or intensity; 0 corresponds to no activity; 0.1 corresponds to a trace of color; 0.5 corresponds to very pale coloration; 1 corresponds to clear but low-intensity coloration; 1.5 corresponds to a degree of coloration intermediate between scores 1 and 2; 2 corresponds to clear coloration of moderate intensity; 2.5 corresponds to a degree of coloration intermediate between scores 2 and 3; 3 corresponds to intense coloration; 3.5 corresponds to a degree of coloration intermediate between scores 3 and 4; 4 corresponds to very intense coloration. To be noted: 37° C. The procedure:
as §1, §2, §3

The subject of a further experiment is Listeria innocua 171. The experiment is described as above. Particulars: 37° C. On the set-up: key: —: the symbol “-” corresponds to the absence of color or intensity; 0 corresponds to no activity; 0.1 corresponds to a trace of color; 0.5 corresponds to very pale coloration; 1 corresponds to clear but low-intensity coloration; 1.5 corresponds to a degree of coloration intermediate between scores 1 and 2; 2 corresponds to clear coloration of moderate intensity; 2.5 corresponds to a degree of coloration intermediate between scores 2 and 3; 3 corresponds to intense coloration; 3.5 corresponds to a degree of coloration intermediate between scores 3 and 4; 4 corresponds to very intense coloration. The protocol:
as §1, §2, §3

The subject of a further experiment is Listeria species. Kind of experiment: Experiment 3: differentiation of Listeria species in liquid medium. The protocol: as §1
These substrates were lyophilized in the wells of API-type strips (Registered Trademark). Before use, the substrates contained in the wells were resuspended in an agar-free Columbia-type inoculation medium. […]
as §3

The structures appear in SMILES notation.

Turning to `OC[C@H]1O[C@H](Oc2c[nH]c3cc(Cl)ccc23)[C@@H](O)[C@@H](O)[C@@H]1O` [6-Chloro-3-indolyl-α-D-mannoside], the “results as saccharidase substrate paired with an esterase substrate” value (from here on “results as saccharidase substrate paired”) in experiment [1] was “best results”.

Consider `CC(=O)Oc1c[nH]c2ccccc12` [Y-C2, 3-Indolyl acetate], for which the “I (intensity of the color)” value with Listeria seeligeri 011 (IT 4 h) stood at 3; in the experiment on Listeria seeligeri 011 (IT 6 h), 3; in the experiment on Listeria seeligeri 011 (IT 8 h), 4; with Listeria innocua 166 (IT 4 h), 3; with Listeria innocua 166 (IT 6 h) it was 3; in the experiment with Listeria innocua 166 (IT 8 h), 4. The “I (intensity of the color)” value stood at 3 in [2] (IT 4 h); 4 in experiment [2] (IT 6 h); 4 in experiment [2] (IT 8 h); 3 in the experiment with Listeria ivanovii 018 (IT 4 h); 4 in the experiment with Listeria ivanovii 018 (IT 6 h); 4 with Listeria ivanovii 018 (IT 8 h). Further, the “I (intensity of the color)” value came to 3 in experiment [3] (IT 4 h); 4 in experiment [3] (IT 6 h); 4 in experiment [3] (IT 8 h); 4 in experiment [4] (IT 4 h); 4 in [4] (IT 6 h); 4 in experiment [4] (IT 8 h). The “I (intensity of the color)” value came out at 3 with Listeria welshimeri 023 (IT 4 h); 4 in the experiment with Listeria welshimeri 023 (IT 6 h); 4 with Listeria welshimeri 023 (IT 8 h); 3 in the experiment on Listeria innocua 171 (IT 4 h); 3 in the experiment with Listeria innocua 171 (IT 6 h); 4 in the experiment with Listeria innocua 171 (IT 8 h).

Take `CCCCCCCCC(=O)Oc1c[nH]c2ccc(Br)c(Cl)c12` [5-Bromo-4-chloro-3-indolyl nonanoate]: the contrast entry in [1] (together with a saccharidase substrate based on 6-Chloro-3-indolyl, whatever the target activity) is reported as “best contrast”.

For the compound `OC[C@H]1O[C@@H](Oc2c[nH]c3cc(Cl)ccc23)[C@H](O)[C@@H](O)[C@@H]1O` [6-Chloro-3-indolyl-β-D-glucoside], the “results as saccharidase substrate paired” value in experiment [1] is “best results”.

With `CCCC(=O)Oc1c[nH]c2ccc(Br)c(Cl)c12` [X-C4, 5-Bromo-4-chloro-3-indolyl butyrate], the “I (intensity of the color)” value with Listeria seeligeri 011 (IT 4 h) is listed as 0.5; with Listeria seeligeri 011 (IT 6 h) it was 1; in the experiment with Listeria seeligeri 011 (IT 8 h) it was 2; in the experiment on Listeria innocua 166 (IT 4 h), 0.5; in the experiment with Listeria innocua 166 (IT 6 h), 1; in the experiment with Listeria innocua 166 (IT 8 h), 2. The “I (intensity of the color)” value was determined as 1 in experiment [2] (IT 4 h); 2 in experiment [2] (IT 6 h); 3 in experiment [2] (IT 8 h); 0.5 with Listeria ivanovii 018 (IT 4 h); 1 in the experiment on Listeria ivanovii 018 (IT 6 h); 2 in the experiment on Listeria ivanovii 018 (IT 8 h). Besides, the “I (intensity of the color)” value stood at 0.5 in [3] (IT 4 h); 1 in [3] (IT 6 h); 2 in [3] (IT 8 h); 2 in experiment [4] (IT 4 h); 2 in [4] (IT 6 h); 3 in [4] (IT 8 h). Also, the “I (intensity of the color)” value in the experiment on Listeria welshimeri 023 (IT 4 h) came out at 0.5; in the experiment on Listeria welshimeri 023 (IT 6 h), 1; in the experiment on Listeria welshimeri 023 (IT 8 h), 2; in the experiment with Listeria innocua 171 (IT 4 h), 0.5; in the experiment on Listeria innocua 171 (IT 6 h) it was 1; in the experiment with Listeria innocua 171 (IT 8 h) it was 2. In the experiment on Listeria species, the “differentiation between L. monocytogenes and other species belonging to the same genus” value is “gave a contrast in color”.

Take `CC(=O)N[C@H]1[C@H](Oc2c[nH]c3cc(Cl)ccc23)O[C@H](CO)[C@@H](O)[C@@H]1O` [6-Chloro-3-indolyl-N-acetyl-β-D-glucosaminide]: the “results as saccharidase substrate paired” value in experiment [1] is “best results”.

With `CC(=O)Oc1c[nH]c2ccc(Br)c(Cl)c12` [X-C2, 5-Bromo-4-chloro-3-indolyl acetate], the “I (intensity of the color)” value is listed as 3 in the experiment on Listeria seeligeri 011 (IT 4 h); 3 in the experiment on Listeria seeligeri 011 (IT 6 h); 4 in the experiment with Listeria seeligeri 011 (IT 8 h); 3 with Listeria innocua 166 (IT 4 h); 4 in the experiment with Listeria innocua 166 (IT 6 h); 4 in the experiment with Listeria innocua 166 (IT 8 h). Besides, the “I (intensity of the color)” value in experiment [2] (IT 4 h) was found to be 3; in [2] (IT 6 h) it was 4; in [2] (IT 8 h), 4; in the experiment on Listeria ivanovii 018 (IT 4 h), 3; with Listeria ivanovii 018 (IT 6 h) it was 3; in the experiment with Listeria ivanovii 018 (IT 8 h), 4. The “I (intensity of the color)” value was determined as 2 in experiment [3] (IT 4 h); 2 in experiment [3] (IT 6 h); 3 in experiment [3] (IT 8 h); 3 in experiment [4] (IT 4 h); 4 in experiment [4] (IT 6 h); 4 in [4] (IT 8 h). Besides, the “I (intensity of the color)” value in the experiment on Listeria welshimeri 023 (IT 4 h) was 3; in the experiment on Listeria welshimeri 023 (IT 6 h), 4; in the experiment on Listeria welshimeri 023 (IT 8 h), 4; in the experiment with Listeria innocua 171 (IT 4 h), 4; with Listeria innocua 171 (IT 6 h), 4; with Listeria innocua 171 (IT 8 h) it was 4.

Source of the values: patent publication US7407775B2, “Method for identifying Listeria monocytogenes and culture medium” (Biomerieux S.A., priority 2000, dated 2008).
